{"source": "ChEMBL document CHEMBL3885881", "about": "“DrugMatrix”", "key": {"Rattus norvegicus [1]": {"species_on_record": "Rattus norvegicus", "test": "DrugMatrix - Regimen: Daily Repeat", "type": "toxicity, organism-based, Sprague-Dawley", "design": "regimen Daily Repeat, gender Male, age 6-8 weeks", "conditions": "in vivo, po, 17 mg/kg, route oral GAVAGE, dose level High, vehicle .5 % CMC"}, "Rattus norvegicus [2]": {"species_on_record": "Rattus norvegicus", "type": "toxicity, organism-based, Sprague-Dawley", "conditions": "in vivo, po, 17 mg/kg, 24 h, route oral GAVAGE, dose level High, time 1 day, vehicle .5 % CMC", "description": "DrugMatrix - Regimen: Single"}, "[3]": {"conditions": "[…], tissue Plasma, time 14 day"}}}
{"smiles": "O=C(Nc1c(Cl)cncc1Cl)c1ccc(OC(F)F)c(OCC2CC2)c1", "note": "[ROFLUMILAST]", "values": [{"measurement": "URIC ACID", "setting": "Rattus norvegicus [1]; 96 h, tissue Plasma, time 4 day", "value": 1.7, "unit": "mg/dL"}, {"measurement": "ABSOLUTE BASOPHIL", "setting": "Rattus norvegicus [1]; […], tissue Blood, time 14 day", "value": 0, "unit": "CELLS/uL"}, {"measurement": "ABSOLUTE EOSINOPHIL", "setting": "Rattus norvegicus [1]; […], tissue Blood, time 14 day", "value": 0, "unit": "CELLS/uL"}, {"measurement": "ABSOLUTE LYMPHOCYTE", "setting": "Rattus norvegicus [1]; […], tissue Blood, time 14 day", "value": 3828.67, "unit": "CELLS/uL"}, {"measurement": "ABSOLUTE MONOCYTE", "setting": "Rattus norvegicus [1]; […], tissue Blood, time 14 day", "value": 852.67, "unit": "CELLS/uL"}, {"measurement": "ABSOLUTE SEGMENTED NEUTROPHIL", "setting": "Rattus norvegicus [1]; […], tissue Blood, time 14 day", "value": 8985.33, "unit": "CELLS/uL"}, {"measurement": "BASOPHIL", "setting": "Rattus norvegicus [1]; […], tissue Blood, time 14 day", "value": 0, "unit": "%"}, {"measurement": "EOSINOPHIL", "setting": "Rattus norvegicus [1]; […], tissue Blood, time 14 day", "value": 0, "unit": "%"}, {"measurement": "ERYTHROCYTE COUNT", "setting": "Rattus norvegicus [1]; […], tissue Blood, time 14 day", "value": 7.38, "unit": "x10E6/uL"}, {"measurement": "HEMATOCRIT", "setting": "Rattus norvegicus [1]; […], tissue Blood, time 14 day", "value": 41.2, "unit": "%"}, {"measurement": "HEMOGLOBIN", "setting": "Rattus norvegicus [1]; […], tissue Blood, time 14 day", "value": 14.73, "unit": "G/DL"}, {"measurement": "LEUKOCYTE COUNT", "setting": "Rattus norvegicus [1]; […], tissue Blood, time 14 day", "value": 13.67, "unit": "x10E3/uL"}, {"measurement": "LYMPHOCYTE", "setting": "Rattus norvegicus [1]; […], tissue Blood, time 14 day", "value": 26, "unit": "%"}, {"measurement": "MEAN CORPUSCULAR HEMOGLOBIN", "setting": "Rattus norvegicus [1]; […], tissue Blood, time 14 day", "value": 20, "unit": "pg"}, {"measurement": "MEAN CORPUSCULAR HEMOGLOBIN CONCENTRATION", "setting": "Rattus norvegicus [1]; […], tissue Blood, time 14 day", "value": 35.83, "unit": "G/DL"}, {"measurement": "MONOCYTE", "setting": "Rattus norvegicus [1]; […], tissue Blood, time 14 day", "value": 6.33, "unit": "%"}, {"measurement": "NEUTROPHIL", "setting": "Rattus norvegicus [1]; […], tissue Blood, time 14 day", "value": 67.67, "unit": "%"}, {"measurement": "NUCLEATED RED BLOOD CELLS", "setting": "Rattus norvegicus [1]; […], tissue Blood, time 14 day", "value": "0 /100WBC"}, {"measurement": "PLATELET COUNT", "setting": "Rattus norvegicus [1]; […], tissue Blood, time 14 day", "value": 2047.33, "unit": "x10E3/uL"}, {"measurement": "ALANINE AMINOTRANSFERASE", "setting": "Rattus norvegicus [1]; [3]", "value": 33, "unit": "u/L"}, {"measurement": "ALBUMIN", "setting": "Rattus norvegicus [1]; [3]", "value": 3.1, "unit": "G/DL"}, {"measurement": "ALKALINE PHOSPHATASE", "setting": "Rattus norvegicus [1]; [3]", "value": 109, "unit": "u/L"}, {"measurement": "ASPARTATE AMINOTRANSFERASE", "setting": "Rattus norvegicus [1]; [3]", "value": 103.67, "unit": "u/L"}, {"measurement": "BLOOD UREA NITROGEN", "setting": "Rattus norvegicus [1]; [3]", "value": 25, "unit": "mg/dL"}, {"measurement": "CARBON DIOXIDE", "setting": "Rattus norvegicus [1]; [3]", "value": 30, "unit": "mmol/L"}, {"measurement": "CHLORIDE", "setting": "Rattus norvegicus [1]; [3]", "value": 97.5, "unit": "MEQ/L"}, {"measurement": "CHOLESTEROL", "setting": "Rattus norvegicus [1]; [3]", "value": 42.5, "unit": "mg/dL"}, {"measurement": "CREATININE", "setting": "Rattus norvegicus [1]; [3]", "value": 0.19, "unit": "mg/dL"}, {"measurement": "GLUCOSE", "setting": "Rattus norvegicus [1]; [3]", "value": 128, "unit": "mg/dL"}, {"measurement": "LACTATE DEHYDROGENASE", "setting": "Rattus norvegicus [1]; [3]", "value": 569, "unit": "u/L"}, {"measurement": "LIPASE", "setting": "Rattus norvegicus [1]; [3]", "value": 10, "unit": "u/L"}, {"measurement": "PHOSPHORUS", "setting": "Rattus norvegicus [1]; [3]", "value": 9.15, "unit": "mg/dL"}, {"measurement": "POTASSIUM", "setting": "Rattus norvegicus [1]; [3]", "value": 5.72, "unit": "MEQ/L"}, {"measurement": "SODIUM", "setting": "Rattus norvegicus [1]; [3]", "value": 142.95, "unit": "MEQ/L"}, {"measurement": "TOTAL BILIRUBIN", "setting": "Rattus norvegicus [1]; [3]", "value": 0.1, "unit": "mg/dL"}, {"measurement": "TOTAL PROTEIN", "setting": "Rattus norvegicus [1]; [3]", "value": 6.25, "unit": "G/DL"}, {"measurement": "URIC ACID", "setting": "Rattus norvegicus [1]; [3]", "value": 1.7, "unit": "mg/dL"}, {"measurement": "ABSOLUTE EOSINOPHIL", "setting": "Rattus norvegicus [2]; tissue Blood", "value": 58.67, "unit": "CELLS/uL"}, {"measurement": "ABSOLUTE LYMPHOCYTE", "setting": "Rattus norvegicus [2]; tissue Blood", "value": 7680, "unit": "CELLS/uL"}, {"measurement": "ABSOLUTE MONOCYTE", "setting": "Rattus norvegicus [2]; tissue Blood", "value": 245.33, "unit": "CELLS/uL"}, {"measurement": "ABSOLUTE SEGMENTED NEUTROPHIL", "setting": "Rattus norvegicus [2]; tissue Blood", "value": 416, "unit": "CELLS/uL"}, {"measurement": "BASOPHIL", "setting": "Rattus norvegicus [2]; tissue Blood", "value": 0, "unit": "%"}, {"measurement": "EOSINOPHIL", "setting": "Rattus norvegicus [2]; tissue Blood", "value": 0.67, "unit": "%"}, {"measurement": "ERYTHROCYTE COUNT", "setting": "Rattus norvegicus [2]; tissue Blood", "value": 5.72, "unit": "x10E6/uL"}, {"measurement": "HEMATOCRIT", "setting": "Rattus norvegicus [2]; tissue Blood", "value": 34.83, "unit": "%"}, {"measurement": "HEMOGLOBIN", "setting": "Rattus norvegicus [2]; tissue Blood", "value": 12.9, "unit": "G/DL"}, {"measurement": "LEUKOCYTE COUNT", "setting": "Rattus norvegicus [2]; tissue Blood", "value": 8.4, "unit": "x10E3/uL"}, {"measurement": "LYMPHOCYTE", "setting": "Rattus norvegicus [2]; tissue Blood", "value": 91.33, "unit": "%"}, {"measurement": "MEAN CORPUSCULAR HEMOGLOBIN", "setting": "Rattus norvegicus [2]; tissue Blood", "value": 22.67, "unit": "pg"}, {"measurement": "MEAN CORPUSCULAR HEMOGLOBIN CONCENTRATION", "setting": "Rattus norvegicus [2]; tissue Blood", "value": 37.1, "unit": "G/DL"}, {"measurement": "MONOCYTE", "setting": "Rattus norvegicus [2]; tissue Blood", "value": 3, "unit": "%"}, {"measurement": "NEUTROPHIL", "setting": "Rattus norvegicus [2]; tissue Blood", "value": 5, "unit": "%"}, {"measurement": "NUCLEATED RED BLOOD CELLS", "setting": "Rattus norvegicus [2]; tissue Blood", "value": "0 /100WBC"}, {"measurement": "PLATELET COUNT", "setting": "Rattus norvegicus [2]; tissue Blood", "value": 734, "unit": "x10E3/uL"}, {"measurement": "ALANINE AMINOTRANSFERASE", "setting": "Rattus norvegicus [2]; tissue Plasma", "value": 52.33, "unit": "u/L"}, {"measurement": "ALBUMIN", "setting": "Rattus norvegicus [2]; tissue Plasma", "value": 4.07, "unit": "G/DL"}, {"measurement": "ALKALINE PHOSPHATASE", "setting": "Rattus norvegicus [2]; tissue Plasma", "value": 343, "unit": "u/L"}, {"measurement": "ASPARTATE AMINOTRANSFERASE", "setting": "Rattus norvegicus [2]; tissue Plasma", "value": 103, "unit": "u/L"}, {"measurement": "BLOOD UREA NITROGEN", "setting": "Rattus norvegicus [2]; tissue Plasma", "value": 16.33, "unit": "mg/dL"}, {"measurement": "CARBON DIOXIDE", "setting": "Rattus norvegicus [2]; tissue Plasma", "value": 32, "unit": "mmol/L"}, {"measurement": "CHLORIDE", "setting": "Rattus norvegicus [2]; tissue Plasma", "value": 103.33, "unit": "MEQ/L"}, {"measurement": "CHOLESTEROL", "setting": "Rattus norvegicus [2]; tissue Plasma", "value": 76.67, "unit": "mg/dL"}, {"measurement": "CREATININE", "setting": "Rattus norvegicus [2]; tissue Plasma", "value": 0.17, "unit": "mg/dL"}, {"measurement": "GLUCOSE", "setting": "Rattus norvegicus [2]; tissue Plasma", "value": 156.33, "unit": "mg/dL"}, {"measurement": "LACTATE DEHYDROGENASE", "setting": "Rattus norvegicus [2]; tissue Plasma", "value": 133.67, "unit": "u/L"}, {"measurement": "LIPASE", "setting": "Rattus norvegicus [2]; tissue Plasma", "value": 9.33, "unit": "u/L"}, {"measurement": "PHOSPHORUS", "setting": "Rattus norvegicus [2]; tissue Plasma", "value": 12.87, "unit": "mg/dL"}, {"measurement": "POTASSIUM", "setting": "Rattus norvegicus [2]; tissue Plasma", "value": 6.09, "unit": "MEQ/L"}, {"measurement": "SODIUM", "setting": "Rattus norvegicus [2]; tissue Plasma", "value": 148.53, "unit": "MEQ/L"}, {"measurement": "TOTAL BILIRUBIN", "setting": "Rattus norvegicus [2]; tissue Plasma", "value": 0.17, "unit": "mg/dL"}, {"measurement": "TOTAL PROTEIN", "setting": "Rattus norvegicus [2]; tissue Plasma", "value": 6.2, "unit": "G/DL"}, {"measurement": "URIC ACID", "setting": "Rattus norvegicus [2]; tissue Plasma", "value": 1.27, "unit": "mg/dL"}]}
